# Columns and labels:
# [1] = tested on: Tyrosine-protein kinase ABL1 (Homo sapiens), P00519 [M351T]
# [2] = tested on: ALK tyrosine kinase receptor (Homo sapiens), Q9UM73 [L1196M]
# [3] = target: Ankyrin repeat and protein kinase domain-containing protein 1 (Homo sapiens) (UniProt Q8NFD2)
# [4] = target: Aurora kinase C (Homo sapiens) (UniProt Q9UQB9)
# [5] = target: Calcium/calmodulin-dependent protein kinase type II subunit beta (Homo sapiens) (UniProt Q13554)
# [6] = target: Cyclin-dependent kinase 5 (Homo sapiens) (UniProt Q00535)
# [7] = target: Dual specificity protein kinase CLK4 (Homo sapiens) (UniProt Q9HAZ1)
# [8] = target: Casein kinase I isoform delta (Homo sapiens) (UniProt P48730)
# [9] = target: Casein kinase I isoform gamma-1 (Homo sapiens) (UniProt Q9HCP0)
# [10] = target: Death-associated protein kinase 3 (Homo sapiens) (UniProt O43293)
# [11] = target: Serine/threonine-protein kinase DCLK3 (Homo sapiens) (UniProt Q9C098)
# [12] = target: Myotonin-protein kinase (Homo sapiens) (UniProt Q09013)
# [13] = target: Ephrin type-A receptor 2 (Homo sapiens) (UniProt P29317)
# [14] = target: Ephrin type-A receptor 7 (Homo sapiens) (UniProt Q15375)
# [15] = tested on: Receptor-type tyrosine-protein kinase FLT3 (Homo sapiens), P36888 [R834Q]
# [16] = target: Receptor-type tyrosine-protein kinase FLT3 (Homo sapiens) (UniProt P36888)
# [17] = target: Tyrosine-protein kinase FRK (Homo sapiens) (UniProt P42685)
# [18] = target: Homeodomain-interacting protein kinase 3 (Homo sapiens) (UniProt Q9H422)
# [19] = target: Interleukin-1 receptor-associated kinase 4 (Homo sapiens) (UniProt Q9NWZ3)
# [20] = target: Mitogen-activated protein kinase 9 (Homo sapiens) (UniProt P45984)
# [21] = target: Leucine-rich repeat serine/threonine-protein kinase 2 (Homo sapiens) (UniProt Q5S007)
# [22] = target: Mitogen-activated protein kinase kinase kinase 15 (Homo sapiens) (UniProt Q6ZN16)
# [23] = target: Mitogen-activated protein kinase kinase kinase kinase 3 (Homo sapiens) (UniProt Q8IVH8)
# [24] = target: MAP kinase-activated protein kinase 2 (Homo sapiens) (UniProt P49137)
# [25] = target: Dual specificity mitogen-activated protein kinase kinase 4 (Homo sapiens) (UniProt P45985)
# [26] = target: Maternal embryonic leucine zipper kinase (Homo sapiens) (UniProt Q14680)
# [27] = target: Serine/threonine-protein kinase PAK 1 (Homo sapiens) (UniProt Q13153)
# [28] = target: Serine/threonine-protein kinase PAK 6 (Homo sapiens) (UniProt Q9NQU5)
# [29] = target: Serine/threonine-protein kinase PAK 5 (Homo sapiens) (UniProt Q9P286)
# [30] = target: Platelet-derived growth factor receptor beta (Homo sapiens) (UniProt P09619)
# [31] = target: Cyclin-dependent kinase 2 homolog (Plasmodium falciparum (isolate 3D7)) (UniProt P61075)
# [32] = tested on: Phosphatidylinositol 4,5-bisphosphate 3-kinase catalytic subunit alpha isoform (Homo sapiens), P42336 [M1043I]
# [33] = target: Protein kinase C eta type (Homo sapiens) (UniProt P24723)
# [34] = tested on: Proto-oncogene tyrosine-protein kinase receptor Ret (Homo sapiens), P07949 [M918T]
# [35] = target: Serine/threonine-protein kinase RIO1 (Homo sapiens) (UniProt Q9BRS2)
# [36] = target: Rho-associated protein kinase 2 (Homo sapiens) (UniProt O75116)
# [37] = target: Ribosomal protein S6 kinase alpha-1 (Homo sapiens) (UniProt Q15418)
# [38] = target: SRSF protein kinase 2 (Homo sapiens) (UniProt P78362)
# [39] = target: Serine/threonine-protein kinase 33 (Homo sapiens) (UniProt Q9BYT3)
# [40] = target: Tyrosine-protein kinase Tec (Homo sapiens) (UniProt P42680)
# [41] = target: Vascular endothelial growth factor receptor 2 (Homo sapiens) (UniProt P35968)
# [42] = target: 5-hydroxytryptamine receptor 3A (Homo sapiens) (UniProt P46098); conditions: Compound concentration 10.0 uM
# [43] = target: Sodium-dependent serotonin transporter (Homo sapiens) (UniProt P31645); conditions: Compound concentration 10.0 uM
# [44] = target: Beta-1 adrenergic receptor (Homo sapiens) (UniProt P08588); conditions: Compound concentration 10.0 uM
# [45] = target: Muscarinic acetylcholine receptor M3 (Homo sapiens) (UniProt P20309); conditions: Compound concentration 10.0 uM
# [46] = Compound concentration 100.0 nM
# [47] = Compound concentration 1000.0 nM
# Chain of Cyclin-dependent kinase 5 (Homo sapiens) (Q00535 whole entry, looked up): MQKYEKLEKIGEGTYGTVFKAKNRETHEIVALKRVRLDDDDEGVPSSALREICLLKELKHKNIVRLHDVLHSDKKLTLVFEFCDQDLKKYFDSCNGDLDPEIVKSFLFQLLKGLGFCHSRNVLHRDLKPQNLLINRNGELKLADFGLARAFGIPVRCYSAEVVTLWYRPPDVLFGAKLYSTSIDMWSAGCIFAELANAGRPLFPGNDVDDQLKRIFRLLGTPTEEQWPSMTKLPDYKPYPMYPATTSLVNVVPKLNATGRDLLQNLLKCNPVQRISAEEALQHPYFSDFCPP
# Chain of Serine/threonine-protein kinase PAK 5 (Homo sapiens) (Q9P286 whole entry, looked up): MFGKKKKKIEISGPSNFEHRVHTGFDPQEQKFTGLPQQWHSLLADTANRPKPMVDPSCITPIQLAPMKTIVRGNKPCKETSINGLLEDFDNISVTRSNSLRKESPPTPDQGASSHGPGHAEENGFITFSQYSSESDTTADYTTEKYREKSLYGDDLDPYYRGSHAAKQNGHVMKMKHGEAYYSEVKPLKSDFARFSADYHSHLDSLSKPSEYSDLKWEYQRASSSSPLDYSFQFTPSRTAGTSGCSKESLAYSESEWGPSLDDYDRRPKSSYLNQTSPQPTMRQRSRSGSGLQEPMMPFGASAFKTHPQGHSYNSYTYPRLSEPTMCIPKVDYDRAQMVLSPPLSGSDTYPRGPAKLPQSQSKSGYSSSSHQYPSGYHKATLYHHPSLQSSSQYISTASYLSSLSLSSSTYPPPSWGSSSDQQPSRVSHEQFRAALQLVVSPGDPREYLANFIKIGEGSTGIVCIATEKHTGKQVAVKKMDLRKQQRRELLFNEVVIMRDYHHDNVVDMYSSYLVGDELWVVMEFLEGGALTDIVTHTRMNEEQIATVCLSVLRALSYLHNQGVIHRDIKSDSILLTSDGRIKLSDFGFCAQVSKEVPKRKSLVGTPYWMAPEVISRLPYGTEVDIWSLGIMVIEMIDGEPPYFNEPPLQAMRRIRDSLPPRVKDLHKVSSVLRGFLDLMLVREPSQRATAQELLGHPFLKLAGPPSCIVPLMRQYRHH
# Chain of Dual specificity protein kinase CLK4 (Homo sapiens) (Q9HAZ1 whole entry, looked up, canonical isoform): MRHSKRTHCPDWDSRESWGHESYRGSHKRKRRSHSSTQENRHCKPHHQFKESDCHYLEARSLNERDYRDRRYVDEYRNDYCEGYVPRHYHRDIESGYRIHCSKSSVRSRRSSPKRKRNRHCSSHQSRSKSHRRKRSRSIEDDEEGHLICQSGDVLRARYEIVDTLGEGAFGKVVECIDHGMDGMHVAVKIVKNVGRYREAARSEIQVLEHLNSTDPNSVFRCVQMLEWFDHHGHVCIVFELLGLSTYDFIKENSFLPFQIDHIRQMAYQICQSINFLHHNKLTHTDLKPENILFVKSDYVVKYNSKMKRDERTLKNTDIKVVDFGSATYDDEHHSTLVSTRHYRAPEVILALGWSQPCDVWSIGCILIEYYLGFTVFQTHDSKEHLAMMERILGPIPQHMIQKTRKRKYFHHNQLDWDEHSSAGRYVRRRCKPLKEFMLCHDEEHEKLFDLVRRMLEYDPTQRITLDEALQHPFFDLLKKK
# Chain of Leucine-rich repeat serine/threonine-protein kinase 2 (Homo sapiens) (Q5S007 whole entry): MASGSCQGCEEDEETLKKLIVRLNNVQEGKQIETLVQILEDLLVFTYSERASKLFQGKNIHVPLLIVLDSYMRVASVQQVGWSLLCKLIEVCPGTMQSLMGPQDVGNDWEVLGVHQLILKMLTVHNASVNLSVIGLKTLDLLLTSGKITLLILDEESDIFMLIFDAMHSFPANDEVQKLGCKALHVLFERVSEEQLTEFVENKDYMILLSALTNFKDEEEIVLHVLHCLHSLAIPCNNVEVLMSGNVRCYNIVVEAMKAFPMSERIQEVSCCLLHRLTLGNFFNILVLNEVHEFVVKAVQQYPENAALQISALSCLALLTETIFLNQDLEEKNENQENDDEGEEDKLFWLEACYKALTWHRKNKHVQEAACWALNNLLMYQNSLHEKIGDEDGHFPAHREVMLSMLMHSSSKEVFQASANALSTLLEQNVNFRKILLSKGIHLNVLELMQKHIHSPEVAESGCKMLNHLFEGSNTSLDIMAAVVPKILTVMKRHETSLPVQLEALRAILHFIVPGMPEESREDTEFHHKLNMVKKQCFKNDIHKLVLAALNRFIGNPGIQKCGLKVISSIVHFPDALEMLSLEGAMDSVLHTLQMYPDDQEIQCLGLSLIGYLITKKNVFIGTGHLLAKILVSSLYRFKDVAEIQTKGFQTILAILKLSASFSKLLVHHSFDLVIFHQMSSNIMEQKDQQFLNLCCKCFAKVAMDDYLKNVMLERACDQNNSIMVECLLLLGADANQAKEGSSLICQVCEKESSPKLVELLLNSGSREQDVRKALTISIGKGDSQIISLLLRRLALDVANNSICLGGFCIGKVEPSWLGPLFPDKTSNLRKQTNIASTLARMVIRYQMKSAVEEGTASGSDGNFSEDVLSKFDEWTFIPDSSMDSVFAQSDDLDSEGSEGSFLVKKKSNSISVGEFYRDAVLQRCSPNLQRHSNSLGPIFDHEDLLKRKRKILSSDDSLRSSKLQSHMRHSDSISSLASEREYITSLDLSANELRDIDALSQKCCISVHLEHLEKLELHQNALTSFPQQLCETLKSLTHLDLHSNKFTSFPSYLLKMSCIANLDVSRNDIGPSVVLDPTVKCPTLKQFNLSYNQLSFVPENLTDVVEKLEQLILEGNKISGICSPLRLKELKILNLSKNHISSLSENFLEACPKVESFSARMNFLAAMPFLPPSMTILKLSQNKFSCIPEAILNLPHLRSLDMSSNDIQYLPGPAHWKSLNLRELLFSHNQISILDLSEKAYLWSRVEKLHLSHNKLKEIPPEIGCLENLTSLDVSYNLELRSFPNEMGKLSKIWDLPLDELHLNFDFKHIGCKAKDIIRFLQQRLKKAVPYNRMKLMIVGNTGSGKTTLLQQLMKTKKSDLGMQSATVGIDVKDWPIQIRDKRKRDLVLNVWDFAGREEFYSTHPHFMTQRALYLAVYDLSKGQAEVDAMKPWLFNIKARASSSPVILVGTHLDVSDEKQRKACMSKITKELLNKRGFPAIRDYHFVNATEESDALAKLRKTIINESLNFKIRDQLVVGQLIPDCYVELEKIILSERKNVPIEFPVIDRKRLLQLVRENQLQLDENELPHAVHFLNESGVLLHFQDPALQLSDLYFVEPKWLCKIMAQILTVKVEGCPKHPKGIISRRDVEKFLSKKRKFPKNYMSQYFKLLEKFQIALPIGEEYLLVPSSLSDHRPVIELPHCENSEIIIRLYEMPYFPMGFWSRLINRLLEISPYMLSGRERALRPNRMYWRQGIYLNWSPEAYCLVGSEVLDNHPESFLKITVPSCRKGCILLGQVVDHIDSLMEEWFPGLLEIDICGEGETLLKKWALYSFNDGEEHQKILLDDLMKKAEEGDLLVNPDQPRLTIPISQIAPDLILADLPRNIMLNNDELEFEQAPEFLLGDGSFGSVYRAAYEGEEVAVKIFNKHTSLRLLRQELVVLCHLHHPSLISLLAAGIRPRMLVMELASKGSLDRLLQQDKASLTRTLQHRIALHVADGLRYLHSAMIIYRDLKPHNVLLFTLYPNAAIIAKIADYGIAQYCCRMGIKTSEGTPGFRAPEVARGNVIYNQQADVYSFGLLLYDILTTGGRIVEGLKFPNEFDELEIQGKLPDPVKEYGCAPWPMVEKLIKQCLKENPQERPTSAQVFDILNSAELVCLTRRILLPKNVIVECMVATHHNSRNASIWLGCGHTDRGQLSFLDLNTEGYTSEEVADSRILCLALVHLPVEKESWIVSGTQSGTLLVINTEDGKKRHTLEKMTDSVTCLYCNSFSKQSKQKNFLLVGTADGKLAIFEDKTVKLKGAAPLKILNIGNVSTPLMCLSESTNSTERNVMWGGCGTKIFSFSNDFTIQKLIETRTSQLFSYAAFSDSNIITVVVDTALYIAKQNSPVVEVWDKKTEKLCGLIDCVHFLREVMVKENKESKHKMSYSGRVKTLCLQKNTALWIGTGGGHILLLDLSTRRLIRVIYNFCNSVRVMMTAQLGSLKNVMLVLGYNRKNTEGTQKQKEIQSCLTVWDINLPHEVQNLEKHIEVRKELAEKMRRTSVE
# Chain of Muscarinic acetylcholine receptor M3 (Homo sapiens) (P20309 whole entry, looked up): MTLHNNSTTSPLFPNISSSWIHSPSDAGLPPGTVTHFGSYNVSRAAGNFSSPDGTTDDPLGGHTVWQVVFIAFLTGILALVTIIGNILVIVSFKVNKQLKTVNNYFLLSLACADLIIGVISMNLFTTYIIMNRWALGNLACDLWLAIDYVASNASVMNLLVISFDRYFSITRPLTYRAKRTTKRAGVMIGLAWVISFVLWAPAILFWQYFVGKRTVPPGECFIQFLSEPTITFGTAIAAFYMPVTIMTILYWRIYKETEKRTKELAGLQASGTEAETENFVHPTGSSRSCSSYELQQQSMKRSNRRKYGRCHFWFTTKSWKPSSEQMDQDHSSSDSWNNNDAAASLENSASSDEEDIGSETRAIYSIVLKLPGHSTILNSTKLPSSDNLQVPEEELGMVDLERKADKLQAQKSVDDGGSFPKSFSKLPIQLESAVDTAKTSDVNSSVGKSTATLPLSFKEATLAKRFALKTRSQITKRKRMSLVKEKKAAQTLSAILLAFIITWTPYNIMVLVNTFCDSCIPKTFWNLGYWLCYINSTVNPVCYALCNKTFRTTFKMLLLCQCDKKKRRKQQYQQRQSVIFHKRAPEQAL
# Chain of Casein kinase I isoform gamma-1 (Homo sapiens) (Q9HCP0 whole entry, looked up, canonical isoform): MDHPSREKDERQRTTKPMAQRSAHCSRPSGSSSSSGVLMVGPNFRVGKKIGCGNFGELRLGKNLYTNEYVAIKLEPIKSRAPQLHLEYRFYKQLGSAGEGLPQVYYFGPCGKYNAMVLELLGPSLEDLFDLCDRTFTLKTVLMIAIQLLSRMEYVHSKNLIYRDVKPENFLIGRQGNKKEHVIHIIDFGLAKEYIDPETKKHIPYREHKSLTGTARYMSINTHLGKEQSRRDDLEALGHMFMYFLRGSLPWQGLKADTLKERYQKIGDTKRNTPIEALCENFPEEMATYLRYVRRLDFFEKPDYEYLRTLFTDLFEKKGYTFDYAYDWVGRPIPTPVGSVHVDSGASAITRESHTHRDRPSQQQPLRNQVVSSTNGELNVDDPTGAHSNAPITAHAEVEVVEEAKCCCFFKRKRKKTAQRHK
compound,measurement,setting,value
CNC(=O)c1ccc(Nc2ncc(C(F)(F)F)c(NCc3nccnc3N(C)S(C)(=O)=O)n2)cc1 [DEFACTINIB],residual activity,[1]; [46],100%
same,residual activity,[2]; [46],85%
same,residual activity,[3]; [46],88%
same,residual activity,[4]; [46],47%
same,residual activity,[5]; [46],86%
same,residual activity,[6]; [46],81%
same,residual activity,[7]; [46],25%
same,residual activity,[8]; [46],98%
same,residual activity,[9]; [46],82%
same,residual activity,[10]; [46],75%
same,residual activity,[11]; [46],67%
same,residual activity,[12]; [46],16%
same,residual activity,[13]; [46],86%
same,residual activity,[14]; [46],68%
same,residual activity,[15]; [46],64%
same,residual activity,[16]; [46],74%
same,residual activity,[17]; [46],100%
same,residual activity,[18]; [46],47%
same,residual activity,[19]; [46],92%
same,residual activity,[20]; [46],95%
same,residual activity,[21]; [46],60%
same,residual activity,[22]; [46],95%
same,residual activity,[23]; [46],95%
same,residual activity,[24]; [46],100%
same,residual activity,[25]; [46],71%
same,residual activity,[26]; [46],23%
same,residual activity,[27]; [46],75%
same,residual activity,[28]; [46],100%
same,residual activity,[29]; [46],62%
same,residual activity,[30]; [46],83%
same,residual activity,[31]; [46],89%
same,residual activity,[32]; [46],100%
same,residual activity,[33]; [46],86%
same,residual activity,[34]; [46],72%
same,residual activity,[35]; [46],100%
same,residual activity,[36]; [46],100%
same,residual activity,[37]; [46],100%
same,residual activity,[38]; [46],100%
same,residual activity,[39]; [46],68%
same,residual activity,[40]; [46],100%
same,residual activity,[41]; [46],73%
same,inhibition,[42],6.5%
same,inhibition,[43],2.45%
same,inhibition,[44],-0.83%
same,inhibition,[45],23.8%
CN(c1ccnc(CNc2nc(Nc3ccc4c(c3)CC(=O)N4)ncc2C(F)(F)F)n1)S(C)(=O)=O [PF-00911705],residual activity,[1]; [47],62%
same,residual activity,[2]; [47],65%
same,residual activity,[3]; [47],84%
same,residual activity,[4]; [47],14%
same,residual activity,[5]; [47],86%
same,residual activity,[6]; [47],79%
same,residual activity,[7]; [47],1.4%
same,residual activity,[8]; [47],100%
same,residual activity,[9]; [47],100%
same,residual activity,[10]; [47],33%
same,residual activity,[11]; [47],43%
same,residual activity,[12]; [47],23%
same,residual activity,[13]; [47],80%
same,residual activity,[14]; [47],87%
same,residual activity,[15]; [47],30%
same,residual activity,[16]; [47],64%
same,residual activity,[17]; [47],93%
same,residual activity,[18]; [47],48%
same,residual activity,[19]; [47],50%
same,residual activity,[20]; [47],79%
same,residual activity,[21]; [47],15%
same,residual activity,[22]; [47],92%
same,residual activity,[23]; [47],87%
same,residual activity,[24]; [47],100%
same,residual activity,[25]; [47],23%
same,residual activity,[26]; [47],40%
same,residual activity,[27]; [47],73%
same,residual activity,[28]; [47],71%
same,residual activity,[29]; [47],76%
same,residual activity,[30]; [47],69%
same,residual activity,[31]; [47],75%
same,residual activity,[32]; [47],95%
same,residual activity,[33]; [47],100%
same,residual activity,[34]; [47],50%
same,residual activity,[35]; [47],9.7%
same,residual activity,[36]; [47],69%
same,residual activity,[37]; [47],100%
same,residual activity,[38]; [47],40%
same,residual activity,[39]; [47],15%
same,residual activity,[40]; [47],100%
same,residual activity,[41]; [47],56%
same,inhibition,[42],1.24%
same,inhibition,[43],33.5%
same,inhibition,[44],16.4%
same,inhibition,[45],-4.64%

# From ChEMBL document CHEMBL4507299, “Data for DCP probe PF-04554878” (2021)
